This is an account of results in patent US20200199102A1, “COMPOUNDS THAT PARTICIPATE IN COOPERATIVE BINDING AND USES THEREOF” (Revolution Medicines, Inc., priority 2017, published 2020).

Test [1] has as its target T1, FKBP12 (Homo sapiens, UniProt P62942). As to the kind of experiment: AlphaLISA inhibition of binding of biotinylated FK506 to FLAG tagged FKBP12. Particulars: read-out: Binding affinity to FKBP12 (by displacement of FK506). The arrangement: made in house. An excerpt:
The binding of compounds of the invention to FKBP12 can be determined using the following protocol.
This protocol utilizes Perkin Elmers AlphaLISA technology platform to detect FKBP binders by measuring the inhibition of binding of biotinylated FK506 to FLAG tagged FKBP12.
10×TBST Buffer (Boston BioProducts IBB-181), Biotinylated FK506 (in-house), FLAG tagged FKBP (in-house); anti-FLAG Donor beads (PerkinElmer AS103) and Streptavidin Acceptor beads (PerkinElmer AL125); Compounds in DMSO (in-house), FK506.
Add 20 uL of 12.5 nM FKBP-FLAG working stock to each well of the 96-well plate. Add 1 uL of test compound (100% DMSO) to each well of the plate using the Janus MTD head and P20 tips (except control wells). Add 1 uL of DMSO to negative control wells and 1 uL of 50 uM FK506 solution to positive control wells. In the dark, add 20 uL of combined Donor/Acceptor beads to each well. Incubate in the dark for 30 minutes at room temperature. In the dark, add 10 uL of 5 nM biotinylated FK506 working stock to each well. Incubate in the dark for 60 minutes at room temperature. Protect plate from light until reading on Biotek Synergy2 Plate Reader; Alphalisa 96-well protocol (680 excitation/615 emission).

Test [2] deals with T1, FKBP12. As to the kind of experiment: SPR binding of compound (analyte) to immobilized FKBP12. On the technique in general: Surface plasmon resonance follows binding to a sensor surface in real time, without labels.
Experimental: This protocol utilizes Surface Plasmon Resonance (SPR) as a method to determine kinetics (KD, Ka, Kd) for the binding of compound (analyte) to immobilized FKBP12 (ligand).
Compound in 100% DMSO (in-house), 10×HBS-P+ buffer (GE Healthcare BR-1006-71), Assay buffer (1×HBS-P+ buffer, 1% DMSO), 12×HIS tagged FKBP12 (in-house).
Experiments are performed at 25° C. Stock solution of 12×HIS tagged FKBP12 is diluted to 100 nM in assay buffer (1% DMSO final). Approximately 500-600 RU of FKBP12 is immobilized on one of two flow cells of an activated NTA chip. The second flow cell is not activated as a reference for non-specific interaction of the analyte to the sensor chip. Various concentrations of compound (1 nM-1 μM range), serially diluted into the same assay buffer (1% DMSO final), are injected onto the FKBP12 surface and reference surface at a flow rate of 10 μl/min. The surface is regenerated between analyte injections with 350 mM EDTA.
Experiments are performed at 25° C. Stock solution of 12×HIS tagged FKBP12 is diluted to 100 nM in assay buffer (1% DMSO final). Approximately 500-600 RU of FKBP12 is immobilized on one of two flow cells of an activated NTA chip. The second flow cell is not activated as a reference for non-specific interaction of the analyte to the sensor chip.
Test [3] concerns the target T2, CEP250 (Homo sapiens, UniProt Q9BV73).
T2 construct: CEP25011.4 (residues 2134-2231) (in-house); made in house
The experiment in a line: SPR binding of CEP250 (analyte) to immobilized FKBP12-F2 binary complex. The note with it: 1 μM F2. Here is the method:
This protocol utilizes Surface Plasmon Resonance (SPR) as a method to determine kinetics (KD, Ka, Kd) for the binding of CEP250 (analyte) to immobilized FKBP12-F2 binary complex (ligand).
Experiments are performed at 25° C. […] Approximately 200-400 RU of FKBP12 is immobilized on one of two flow cells of an activated NTA chip. The second flow cell is not activated as a reference for non-specific interaction of the analyte to the sensor chip. […] The surface is regenerated between analyte injections with 350 mM EDTA.
The BiaEvaluation software program is used for data fitting. All data is reference subtracted against both the reference flow cell and a buffer injection. For kinetic analyses, data is locally fit to a 1:1 interaction model.

In test [4] the target is T3, CEP250 (Homo sapiens, UniProt P62942+Q9BV73).
T3 construct: CEP25011.4 (residues 2134-2231) (in-house); made in house
T3 sequence (Q9BV73 2134-2231): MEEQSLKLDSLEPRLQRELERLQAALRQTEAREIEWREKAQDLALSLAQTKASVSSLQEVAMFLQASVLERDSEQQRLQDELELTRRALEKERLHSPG
T3 sequence (P62942 whole entry, the tested form may be a part): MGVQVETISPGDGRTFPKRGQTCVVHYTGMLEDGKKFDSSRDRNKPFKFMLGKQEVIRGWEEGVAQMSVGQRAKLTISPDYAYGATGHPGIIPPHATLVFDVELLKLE
As to the kind of experiment: Crystal structure analysis of FKBP12-compound-CEP250 ternary complexes. The procedure: This protocol describes the crystallization and structure determination method for structures of FKBP12-Compound 2-CEP250 and FKBP12-F11-CEP250 ternary complexes.
A 3:1 molar excess of FKBP12-F2 or FKBP12-F11 binary complex is added to CEP25011.4 and incubated at 4° C. overnight to complete ternary complex formation. Pure ternary complex is isolated by gel filtration purification on a Superdex 200 column in 12.5 mM HEPES pH 7.4, 75 mM NaCl. Purified complex (at 10-20 mg/ml) is subjected to crystallization at 22° C. using sitting drop vapor diffusion. FKBP12-F2-CEP250 crystals grow in a well solution containing 0.2 M sodium malonate, 0.1 M HEPES 7.0, 21% PEG 3350. FKBP12-F11-CEP250 crystals grow in a well solution containing 0.1 M Tris pH 8.5, 0.2 M trimethylamine N-oxide, 22-24% PEG2000 MME. For data collection crystals are transferred to a solution containing mother liquor supplemented with 20-25% glycerol, and then frozen in liquid nitrogen. Diffraction datasets are collected at the Advanced Photon Source (APS) and processed with the HKL program. Molecular replacement solutions are obtained using the program PHASER in the CCP4 suite, using the published structure of FKBP12 (PDB-ID 1FKD) as a search model. Subsequent model building and refinement are performed according to standard protocols with the software packages CCP4 and COOT.

For test [5], the target named is T2, CEP250. The experiment in a line: ITC binding of FKBP12-compound binary complexes to CEP250. Particulars: FKBP12 10 μM + ligand 20 μM in cell, 298 K; for Kd: calculated from Ka = 1/Kd.
For test [6], the system named is HeLa-FKBP12 cells. The experiment in a line: Biosensor cell permeability assay (FKBP destabilizing mutant), HeLa-FKBP12 cells. The format is cell-based. The note with it: 72 hrs. The procedure:
Cell permeability of compounds can be determined using the following protocol.
This protocol utilizes a modified FKBP or cyclophilin destabilizing mutant to determine the bioactivity of FKBP binding compounds or cyclophilin binding compounds in whole cell assay.
DMEM, DMEM without Phenol Red, 10% FBS, 1× Sodium Pyruvate, 1× Glutamax. Add 125 μl of media with compound per well.
Plate HeLa-FKBP12 cells (for FKBP binding compounds) or HeLa-CyclophilinA cells (for cyclophilin binding compounds) and seed overnight at 5 k/well (approximately ˜18 hrs.). Using a multi-channel pipet, take out the old media and add ˜125 ul of new media with compounds. Compounds are diluted using DMEM without Phenol Red, 10% FBS, 1× Sodium Pyruvate, 1× Glutamax. Add 125 μL of media with compound per well. Cells are treated with compounds at concentration: 30, 10, 3.33, 1.11, 0.37, 0.12, 0.04 and 0.013 uM. Time points are taken at 72 hrs and plate read using plate reader with excitation/emission: 575/620.
Cell binding/permeability is calculated in fold-change (Total RFU of treated samples/total RFU of DMSO treated samples or total RFU above background (Total RFU minus total RFU of DMSO treated samples).

Where [7] appears, read: read-out: SPR affinity to FKBP12: KD, 25° C., Table 7.
[8] abbreviates: FKBP12-compound-CEP250 crystal structure.

Molecules are shown by their SMILES. Values joined by “and” are separate entries in the source; they are usually repeats but may differ in a detail not shown here. Equal values may be shown once. Read-outs that look alike come from different tables or passages of the source. Where only a bound is given, the exact number is not on record here.

T1 sequence (P62942 whole entry, species assumed): as the sequence (P62942 whole entry, the tested form may be a part) above

Turning to `CCC(Cc1ccccc1)C1C=CCC=CCC(C)C(O)C(C)C2CCC(C)C(O)(CC(=O)N3CCCCC3C(=O)O1)O2` (stereo not shown) [Compound F1], in test [1], the IC50 is 355 nM. In addition, the Kd (in general, the equilibrium constant for the complex coming apart) in test [2] (setting [7]) is 71.5 nM.
The compound `CC[C@H](Cc1ccccc1)[C@@H]1/C=C/C/C=C/C[C@@H](C)[C@H](O)[C@@H](C)[C@@H]2CC[C@@H](C)C(=O)C(O)(O2)C(=O)N2CCCC[C@H]2C(=O)O1` [Compound F2, (2S)-1-((4R,7S)-7-((2R,3S,4R,6E,9E,11R,12R)-12-benzyl-3,11-dihydroxy-4-methyltetradeca-6,9-dien-2-yl)-2-hydroxy-4-methyl-3-oxooxepane-2-carbonyl)piperidine-2-carboxylic acid C-11 lactone] displayed a Ka in test [3] (FKBP12/F2 complex to CEP25011.4 (residues 2134-2231)) of 571000 M⁻¹ s⁻¹. The compound further returned a Ka in test [3] (FKBP12/F2 complex to CEP25029.2 (residues 1982-2231)) of 311000 M⁻¹ s⁻¹. In addition, in test [1], the IC50 stood at 1.5 nM. Also, in test [4] (setting [8]), the “buried surface area of CEP250 contributed by FKBP12” value is on record as 663 Å^2; the “buried surface area of CEP250 contributed by the compound” value was 232 Å^2 and 241 Å^2; the “total buried surface area of CEP250” value is 865 Å^2; the “total buried surface area of the ternary complex” value is listed as 1759 Å^2. Also, the “binding interactions between compound and CEP250 that are van der Waals or pi-pi interactions” value in test [4] (ternary complex) was 100%. Moreover, in test [5] (CEP25011.4 68 μM in syringe), the ΔG was −40.75 kJ*mol −mol−1, the ΔH is given as −49.37 kJ*mol −mol−1, the “−T*ΔS” value stood at 8.62 kJ*mol −mol−1 and the Kd was 70 nM. In test [5] (CEP25029.4 118 μM in syringe), the ΔG was −38.41 kJ*mol −mol−1, the ΔH is −52.21 kJ*mol −mol−1, the “−T*ΔS” value is 13.80 kJ*mol −mol−1 and the Kd was 190 nM. The compound further registered an IC50 in test [6] of less than 1000 nM. The compound further yielded a Ka in test [2] (Example 10, 25° C., 1:1 interaction model) of 45000 M⁻¹ s⁻¹. The Kd in test [2] (setting [7]) is 12.6 nM.
For the compound `CC1=CCC(O)CC(C(C)=CC(C)=CC2C=CC(O)C(O)C2)OC(=O)C2CCCCN2C(=O)CC2(O)OC(C(C)CC=CCC(O)C=C1)C(C)CC2C` (stereo not shown) [Compound F6], the IC50 was 60 nM in test [1] and less than 1000 nM in test [6]. Also, the Kd in test [2] (setting [7]) was determined as 141 nM.
In the case of `COC1C(O)CCC(CC(C)C2CCCC=CCC(C)=CCC3OC(O)(C(=O)C(=O)N4CCCCC4C(=O)O2)C(C)CC3C)C1O` (stereo not shown) [Compound F9], the IC50 in test [1] was 0.3 nM; in test [6] it was less than 1000 nM. In addition, the Kd in test [2] (setting [7]) worked out at 0.23 nM.
On to `CCC1C=C(C)C(O)CCC(C)C=CC(O)C(C)C2CCC(C)C(O)(O2)C(=O)C(=O)N2CCCCC2C(=O)OC2C=CC(=CC2O)C=C(C)C1` (stereo not shown) [Compound F10], for which the IC50 in test [1] was 21.1 nM; in test [6], greater than 1000 nM. Moreover, in test [2] (setting [7]), the equilibrium dissociation constant (Kd) is 17.2 nM.
With `CC[C@H](Cc1ccccc1)[C@@H]1CCCCCC[C@@H](C)[C@H](O)[C@@H](C)[C@@H]2CC[C@@H](C)C(=O)C(O)(O2)C(=O)N2CCCC[C@H]2C(=O)O1` [Compound F11, (2S)-1-((4R,7S)-7-((2R,3S,4R,11S,12R)-12-benzyl-3,11-dihydroxy-4-methyltetradecan-2-yl)-2-hydroxy-4-methyl-3-oxooxepane-2-carbonyl)piperidine-2-carboxylic acid C-11 Lactone], in test [1], the IC50 was 0.51 nM. In test [4] (setting [8]), the “buried surface area of CEP250 contributed by FKBP12” value is listed as 590 Å^2, the “total buried surface area of CEP250” value came out at 831 Å^2 and the “total buried surface area of the ternary complex” value worked out at 1648 Å^2. Also, in test [5] (CEP25011.4 68 μM in syringe), the ΔG is listed as −40.36 kJ*mol −mol−1, the ΔH is given as −47.78 kJ*mol −mol−1, the “−T*ΔS” value came out at 7.41 kJ*mol −mol−1 and the Kd was 80 nM. In addition, in test [5] (CEP25029.4 118 μM in syringe), the ΔG is given as −36.74 kJ*mol −mol−1, the ΔH was −58.48 kJ*mol −mol−1, the “−T*ΔS” value was determined as 21.73 kJ*mol −mol−1 and the Kd was 360 nM. The same compound displayed a Kd in test [2] (KD, Example 10, 25° C., 1:1 interaction model) of 15.6 nM. In addition, the affinity in test [2] (SPR affinity to FKBP12: KD, 25° C., Table 7), expressed as Kd, was 21.5 nM.
In the case of `CC1=CC2=CC(O)C(C=C2)OC(=O)C2CCCCN2C(=O)C(=O)C2(O)OC(CCC2C)C(C)C(O)C=CC(C)CCC(O)C(C)=CC(C)C1` (stereo not shown) [Compound F12], the figures for the IC50 in test [1] and in test [6] were 36.3 nM and greater than 1000 nM, respectively. The Kd in test [2] (setting [7]) amounted to 21.2 nM.
Take `CC(=CC1C=CC(O)C(O)C1)C=C(C)C1CC(O)CC1C(C)(O)C=CC(O)CC=CCC(C)C1OC(O)(CC(=O)N2CCCCC2C(=O)O)C(C)CC1C` (stereo not shown) [Compound F23]: the figures for the IC50 in test [1] and in test [6] were 4690 nM and greater than 1000 nM, respectively.
